Results: patent publication US9469650B2, “Melampomagnolide B derivatives” (BOARD OF TRUSTEES OF THE UNIVERSITY OF ARKANSAS, priority 2013, dated 2016)
Where two headings read alike, the source gives them in different places.

What was measured:
UACC-62 [1] = tested on: UACC-62
MALME-3M [2] = experiment: panel of 60 human tumor cell lines, growth inhibition (Melanoma)
MALME-3M [3] = tested on: MALME-3M
UACC-62 [4] = experiment: panel of 60 human tumor cell lines, growth inhibition (Melanoma)
HL-60(TB) = experiment: cells; details: Homo sapiens
RPMI-8226 = experiment: panel of 60 human tumor cell lines, growth inhibition (Leukemia)
[5] = tested on: panel of 60 human tumor cell lines; experiment: panel of 60 human tumor cell lines, whole panel or sub-panel (single concentration screen, summaries); type: cell-based; details: single concentration of 10^−5 M, read-out: growth inhibition in at least eight human cancer cell lines from the panel
[6] = MALME-3M, Log10 Concentration −4.0
[7] = MALME-3M, Log10 Concentration −5.0
[8] = MALME-3M, Log10 Concentration −6.0
[9] = MALME-3M, Log10 Concentration −7.0
[10] = MALME-3M, Log10 Concentration −8.0
[11] = UACC-62, Log10 Concentration −4.0
[12] = UACC-62, Log10 Concentration −5.0
[13] = UACC-62, Log10 Concentration −6.0
[14] = UACC-62, Log10 Concentration −7.0
[15] = UACC-62, Log10 Concentration −8.0

Text for AML 052308 cells: Derivatives were screened for antileukemic activity against AML cells in culture (See FIGS. 1-7).

C=C1C(=O)O[C@H]2[C@H]1CC/C(COC(=O)N1CCN(C)CC1)=C\CC[C@@]1(C)O[C@@H]21 [JVM 2-44]
CC50 (SK-MEL-28): 56.5 µM | CC50 (OVCAR-8): 80.6 µM | CC50 (786-0): 72.3 µM | CC50 (HOP-92): 44.3 µM | CC50 (K-562): > 100 µM | CC50 (CCRF-CEM): > 100 µM | CC50 (SK-MEL-5): 58.7 µM | CC50 (NCI-H322M): > 100 µM | CC50 (U251): 88.7 µM | CC50 (NCI-H522): 8.2 µM | CC50 (SF-268): 75.7 µM | CC50 (HOP-62): > 100 µM | CC50 (SNB-75): 61.2 µM | CC50 (SN12C): 69.7 µM | CC50 (PC-3): > 100 µM | CC50 (UACC-257): 54.1 µM | CC50 (DU-145): 48.7 µM | CC50 (SNB-19): > 100 µM | CC50 (UACC-62 [1]): 54.1 µM | CC50 (NCI-H226): > 100 µM | CC50 (A498): > 100 µM | CC50 (HS 578T): > 100 µM | CC50 (MDA-MB-231/ATCC): 67 µM | CC50 (MDA-MB-435): 57.5 µM | CC50 (MOLT-4): > 100 µM | CC50 (BT-549): 49 µM | CC50 (NCI/ADR-RES): > 100 µM | CC50 (SK-MEL-2): 75.3 µM | GI50 (MALME-3M [2]; MALME-3M): 3.33 µM | TGI (MALME-3M [2]; MALME-3M): 1.20E−5 | Mean Optical Densities (MALME-3M [2]; [6]): 0.168 | Percent Growth (MALME-3M [2]; [6]): −63% | Mean Optical Densities (MALME-3M [2]; [7]): 0.461 | Percent Growth (MALME-3M [2]; [7]): 5% | Mean Optical Densities (MALME-3M [2]; [8]): 0.705 | Percent Growth (MALME-3M [2]; [8]): 99% | Mean Optical Densities (MALME-3M [2]; [9]): 0.680 | Percent Growth (MALME-3M [2]; [9]): 89% | Mean Optical Densities (MALME-3M [2]; [10]): 0.702 | Percent Growth (MALME-3M [2]; [10]): 98% | CC50 (HCT-15): 56.6 µM | CC50 (MALME-3M [3]): 65.4 µM | CC50 (A549/ATCC): > 100 µM | CC50 (TK-10): 41.6 µM | CC50 (HCC-2998): 71.9 µM | CC50 (HT29): 62 µM | CC50 (OVCAR-5): 68.6 µM | CC50 (LOX IMVI): 55.9 µM | CC50 (RXF 393): 48.6 µM | CC50 (CAKI-1): 42.8 µM | CC50 (SW-620): 58.3 µM | CC50 (M14): 69.9 µM | CC50 (NCI-H460): > 100 µM | GI50 (UACC-62 [4]; UACC-62): 6.56 µM | TGI (UACC-62 [4]; UACC-62): 2.14E−5 | Mean Optical Densities (UACC-62 [4]; [11]): 0.089 | Percent Growth (UACC-62 [4]; [11]): −83% | Mean Optical Densities (UACC-62 [4]; [12]): 1.284 | Percent Growth (UACC-62 [4]; [12]): 41% | Mean Optical Densities (UACC-62 [4]; [13]): 2.153 | Percent Growth (UACC-62 [4]; [13]): 89% | Mean Optical Densities (UACC-62 [4]; [14]): 2.330 | Percent Growth (UACC-62 [4]; [14]): 99% | Mean Optical Densities (UACC-62 [4]; [15]): 2.369 | Percent Growth (UACC-62 [4]; [15]): 101% | CC50 (T-47D): 82.3 µM

C=C1C(=O)O[C@H]2[C@H]1CC/C(COC(=O)NCCN1CCCC1)=C\CC[C@@]1(C)O[C@@H]21 [JVM 59, ((1aR,7aS,10aS,10bS,E)-1a-methyl-8-methylene-9-oxo-1a,2,3,6,7,7a,8,9,10a,10b-decahydrooxireno[2′,3′:9,10]cyclodeca[1,2-b]furan-5-yl)methyl-(2-(pyrrolidin-1-yl)ethyl)carbamate]
GI50 (HL-60(TB); HL-60): 4.15 µM | CC50 (HL-60(TB); HL-60, read-out: LC50): 70.3 µM | IC (TGI) (HL-60(TB); HL-60, read-out: TGI): 18.3 µM | GI50 (RPMI-8226; Homo sapiens, RPMI-8226): 8.71 µM | CC50 (RPMI-8226; Homo sapiens, RPMI-8226, read-out: LC50): 97.1 µM | TGI (RPMI-8226; RPMI-8226, five dose): 3.01E−5 | Percent Growth (RPMI-8226; RPMI-8226, Log10 Concentration −4.0): −51% | Percent Growth (RPMI-8226; RPMI-8226, Log10 Concentration −5.0): 47% | Percent Growth (RPMI-8226; RPMI-8226, Log10 Concentration −6.0): 97% | Percent Growth (RPMI-8226; RPMI-8226, Log10 Concentration −7.0): 98% | Percent Growth (RPMI-8226; RPMI-8226, Log10 Concentration −8.0): 184% | inhibition at 10 µM [5]: > 60% | GI50 (MALME-3M [2]; Homo sapiens, Malme-3M): 4.18 µM | CC50 (MALME-3M [2]; Homo sapiens, Malme-3M, read-out: LC50): 55.2 µM | TGI (MALME-3M [2]; MALME-3M, five dose): 1.59E−5 | Percent Growth (MALME-3M [2]; [6]): −74% | Percent Growth (MALME-3M [2]; [7]): 18% | Percent Growth (MALME-3M [2]; [8]): 102% | Percent Growth (MALME-3M [2]; [9]): 93% | Percent Growth (MALME-3M [2]; [10]): 91% | cytotoxicity compared to MMB (AML 052308 cells): almost equal cytotoxicity to MMB | GI50 (UACC-62 [4]; Homo sapiens, UACC-62): 13.3 µM | CC50 (UACC-62 [4]; Homo sapiens, UACC-62, read-out: LC50): 55.8 µM | IC (TGI) (UACC-62 [4]; Homo sapiens, UACC-62, read-out: TGI): 27.3 µM
